Reference: US6664231B1, “Anti-fungal peptides” (priority 1993, dated 2003)
Read-outs that look alike come from different tables or passages of the source.

What was measured:
[1] = system: Candida glabrata; experiment: Radial diffusion assay, Candida species (Table 2); assay type: cell-based
Description: (§1) The anti-fungal activity of Domain III derived peptides was also evaluated in vitro against a variety of fungal species, including Candida glabrata, Candida krusei, Candida lusitaniae, Candida parapsilosis, and Candida tropicalis. For these experiments, one colony of each of the above-listed Candida strains was picked from a Sabouraud's dextrose agar (SDA) plate and inoculated into 5 mL of Sabouraud's dextrose broth (SDB, 2% dextrose and 1% neopeptone) or, for C. krusei, Yeast Malt broth (YM, Becton Dickenson, Cockeysville, Md., cat no. BL 11405) in 12 mL polyproplyene snap-cap tubes. The tube cultures were incubated overnight with shaking at 37° C.
(§2) Cultures were harvested when the OD570 of a 1:10 dilution was greater than or equal to the following values: 0.083 for Candida glabrata, 0.154 for Candida krusei, 0.117 for Candida lusitaniae, 0.076 for Candida parapsilosis, and 0.192 for Candida tropicalis. Cells were centrifuged for 7 minutes in an Eppendorf microfuge at 3,000 rpm (about 1,500 g). The cell pellet was resuspended in 1 mL PBS and approximately 1×10^7 cells in about 0.5 mL were added to 10 mL of cooled underlay agar (3% SBD, 1% agarose, 0.02% Tween 20, 10 mM sodium phosphate buffer, pH 7.4 at about 45° C.). The suspension was poured into square petri plates, allowed to solidify, and wells cut as described above.
(§3) Peptides were two-fold serially diluted with D-PBS from about 20 μL of a starting concentration of approximately 1 mg/mL. Five μL of peptide dilution were added per well and allowed to diffuse for at least about 30 minutes into the agar at […] (to allow complete diffusion). Then 10 mL of molten overlayer agarose (6% SDB, 1% agarose, 10 mM sodium phosphate buffer, pH 7.4 at about 45° C.) were added and the plates were incubated inverted at […] overnight. Plates were stained with a dilute Coomassie solution, inhibition zones were measured with calipers and net areas were calculated, then converted to pmole values by PROBIT analysis.

[2] = system: Candida krusei; experiment: Radial diffusion assay, Candida species (Table 2); assay type: cell-based
Description: as §1, §2, §3

[3] = system: Candida lusitaniae; experiment: Radial diffusion assay, Candida species (Table 2); assay type: cell-based
Description: as §1, §2, §3

[4] = system: Candida parapsilosis; experiment: Radial diffusion assay, Candida species (Table 2); assay type: cell-based
Description: as §1, §2, §3

[5] = system: Candida tropicalis; experiment: Radial diffusion assay, Candida species (Table 2); assay type: cell-based
Description: as §1, §2, §3

[6] = system: Trychophyton rubrum ATCC 28188; experiment: organism not typed; assay type: cell-based
Description: The anti-fungal activity of Domain III derived peptides was evaluated against a variety of fungal species, including species of Candida. Cryptococcus, Fusarium, Trichophyton, and Aspergillus, by an additional assay protocol utilizing Alamar Blue. Alamar Blue is an indicator dye formulated to measure quantitatively the proliferation of a variety of human or animal cells, bacteria, or fungi. It consists of an oxidation-reduction (REDOX) indicator that yields a colorimetric change in response to metabolic activity. For these experiments, species of Candida and Cryptococcus were grown in Sabouraud's dextrose broth (SDB) overnight. Strains of filamentous fungi (Aspergilius, Fusanum, Trichophyton) were obtained by irrigation of a confluent culture from a petri dish. Cells were washed and adjusted to a concentration of 5.0×10^3/mL in fresh SDB. […] Controls included amphotericin B, fluconazole, ketoconazole and griseofulvin. Antifungal drugs were also diluted in the same manner. Assays were performed in 96-well microuiter plates. […] The wells to be plated were determined by OD590 readings. The lowest concentration of peptide which maintained the blue color (or OD reading) of the blank was chosen along with the next two higher concentrations. Plates were allowed to grow for 18-48 hours depending on the rate of growth of each fungus. Minimal fungicidal activity (MFC) was determined as a 99.9% killing of the starting inoculum.

[7] = system: Candida albicans SLU-1; experiment: Survival of cyclosporin A-immunosuppressed mice systemically infected with Candida albicans; assay type: in vivo, mouse; conditions: cyclosporin A 10 mg/kg i.p.; 2×10^5 Candida cells; peptide 10 mg/kg, 6 doses; FIG. 7
Description: Studies were also performed to determine the effectiveness of representative anti-fungal peptides in cyclosporin A-immunosuppressed mice systemically infected with Candida albicans SLU-1. Groups (15 animals/group) of 9 week-old male DBA/2J mice were immunosuppressed by pretreatment with 10 mg/kg (Day-1) of cyclosporin A administered by intraperitoneal injection. One day later (Day 0), the mice were inoculated with 2×10^5 Candida cells by intravenous injection in the tail vein. Immediately after fungal challenge, the mice were treated with a 0.1 mL volume of 10 mg/kg XMP.284, 10 mg/kg XMP.127, or PBS as a control. Cyclosporin A injections were repeated at Day 1. Day 3. Day 7, and Day 9. XMP.284, XMP.127 or PBS injections were repeated at Day 2, Day 4, Day 6, Day 8 and Day 10. […]. […] However.

## C[C@@H]1[C@H](O)[C@@H](C)/C=C/C=C/C=C/C=C/C=C/C=C/C=C/[C@H](O[C@@H]2O[C@H](C)[C@@H](O)[C@H](N)[C@@H]2O)C[C@@H]2O[C@](O)(C[C@@H](O)C[C@@H](O)[C@H](O)CC[C@@H](O)C[C@@H](O)CC(=O)O[C@H]1C)C[C@H](O)[C@H]2C(=O)O [Amphotericin B, amphotericin B, reference compound]
[1]
  Anti-fungal activity: pmol/30 mm^2 zone, Candida glabrata: <17 pmol/30 mm^2 zone
[2]
  Anti-fungal activity: pmol/30 mm^2 zone, Candida krusei: 120 pmol/30 mm^2 zone
[3]
  Anti-fungal activity: pmol/30 mm^2 zone, Candida lusitaniae: 35 pmol/30 mm^2 zone
[4]
  Anti-fungal activity: pmol/30 mm^2 zone, Candida parapsilosis: 91 pmol/30 mm^2 zone
[5]
  Anti-fungal activity: pmol/30 mm^2 zone, Candida tropicalis: 108 pmol/30 mm^2 zone
[6]
  Minimum Fungicidal Concentration, Trychophyton rubrum ATCC 28188: 0.32 µg/mL
[7]
  protection against infection, survival compared with PBS controls: protected

## H-SKVKWLIQLFHKK-NH2 [XMP.284]
[6]; ATCC 28188
  Minimum Fungicidal Concentration, Trychophyton rubrum ATCC 28188: 5.0 µg/mL
[7]
  protection against infection, survival compared with PBS controls: provided protection

## H-KSKVGWLIQLFHKK-NH2 [XMP.13]
[1]
  Anti-fungal activity: pmol/30 mm^2 zone, Candida glabrata: 1,022 pmol/30 mm^2 zone
[2]
  Anti-fungal activity: pmol/30 mm^2 zone, Candida krusei: 1,747 pmol/30 mm^2 zone
[3]
  Anti-fungal activity: pmol/30 mm^2 zone, Candida lusitaniae: 746 pmol/30 mm^2 zone
[4]
  Anti-fungal activity: pmol/30 mm^2 zone, Candida parapsilosis: 1,502 pmol/30 mm^2 zone
[5]
  Anti-fungal activity: pmol/30 mm^2 zone, Candida tropicalis: 452 pmol/30 mm^2 zone
